Experimental data taken from US12226424B2, “Target protein degradation compounds, their anti-tumor use, their intermediates and use of intermediates” (ShanghaiTech University, priority 2018, dated 2025).
Where two headings read alike, the source gives them in different places.

What was measured:
[1] = test system: K562 cells (BCR-ABL positive); test: Half inhibitory concentration (IC50) on tumor cells, CCK-8, K562; conditions: read-out: IC50 (nM)/K562 cell line
Experimental: K562 cells were seeded in 100 μL of RPMI1640 complete medium at a density of 20,000 cells/well. 100 μL of the inoculated cells were treated with 100 μL diluted PROTAD compound of the present disclosure to be tested at 9 successively decreasing concentrations (starting at the highest concentration of 10 μM; 3-fold serial dilutions). After the cells were treated with the tested drugs for 48 hours, the cell viability determination was performed in accordance with CCK-8 reagent operating instructions. The negative control was DMSO, and positive control was a commercial inhibitor. After CCK-8 treatment for 2 h, the value of O.D.450 was measured using a microplate reader.

[2] = test system: U937 cells; test: Proliferation inhibition (IC50) on non-BCR-ABL-positive U937 cells
[3] = test system: HEK293 cells; test: Proliferation inhibition (IC50) on non-BCR-ABL-positive HEK293 cells
[4] = test system: MDA-MB-436 cells (PARP-positive); test: Half inhibitory concentration (IC50) on PARP-positive tumor cells, CCK-8, MDA-MB-436; type: cell-based; conditions: Homo sapiens, 72 hours, read-out: IC50 (μM)/MDA-MB-436 cell line
Experimental: PARP-positive cells MDA-MB-436 cells (human breast cancer cells) were purchased from the American Type Culture Collection (ATCC).
The cells used in this present disclosure were cultured in a 37° C. incubator containing 5% CO2. The complete cell culture medium was DMEM medium with 10% fetal bovine serum, and the final concentrations of penicillin and streptomycin were 100 U/mL, respectively. All cells were tested negative for mycoplasma with mycoplasma detection kit before the experiment.
Determination of Half Inhibitory Concentration (IC50) of PROTAD Compounds on Tumor Cells
MDA-MB-436 cells were seeded in 100 μL DMEM complete medium at a density of 3500 cells/well. 100 μL of the inoculated cells were treated with 0.5 μL diluted PROTAD compounds of the present disclosure to be tested at 10 successively decreasing concentrations (starting at the highest concentration of 50 μM; 3-fold serial dilutions). After the cells were treated with the tested drugs for 72 hours, cell viability was determined according to the CCK-8 reagent operating instructions. The negative control was DMSO, and the positive control was a commercial inhibitor. After CCK-8 treatment for 2 h, the value of O.D.450 was measured using a microplate reader.

[5] = target: BCR-ABL (Homo sapiens, UniProt P00519); test: Western-blot half-degradation concentration (DC50) / degradation of BCR-ABL in K562 cells; conditions: read-out: DC50 (nM)/K562 cell line, BCR-ABL protein degradation, 24 hours, Western-blot
[6] = test system: MM1S cells; test: Half inhibitory concentration (IC50) on MM1S tumor cell proliferation (CCK-8); type: cell-based; conditions: Homo sapiens, MM1.S, MM1S cell proliferation inhibitory activity, 72 hours of treatment, read-out: IC50(nM)/MM1S cell line
Experimental: The multiple myeloma cell line used was: MM1S (myeloma (immunoglobulin A lambda), B lymphoblasts), purchased from American Type Culture Collection (ATCC). The medium is RPMI1640 supplemented with 10% FBS and 1% Penicillin-Streptomycin (penicillin and streptomycin). The cells used were identified as correct cells by STR cells, and were negative for mycoplasma through routine inspections.
The cells used in this present disclosure were cultured in a 37° C. incubator containing 5% CO2. The complete cell culture medium was RPMI 1640 medium with 10% fetal bovine serum, and the final concentrations of penicillin and streptomycin were 100 U/mL, respectively.
MM1S cells were seeded in 100 μL RPMI1640 complete medium at a density of 15000 cells/well. 100 μL of the inoculated cells were treated with 0.5 μL diluted thio-substituted compound of formula (IV) to be tested of the present disclosure at 10 successively decreasing concentrations (starting at the highest concentration of 10 μM/1 μM; 5-fold serial dilutions). After 72 hours of treatment, the cell viability was determined according to the CCK-8 reagent operating instructions. The negative control was DMSO, and the positive control was a commercial inhibitor. After CCK-8 treatment for 2 h, the value of O.D.450 was measured using a microplate reader.

[7] = Homo sapiens, U-937, read-out: IC50 (nM)/U937 cell line
[8] = Homo sapiens, HEK293, read-out: IC50 (nM)/HEK293 cell line

Sequence of BCR-ABL (P00519 with tags, fused parts or gaps): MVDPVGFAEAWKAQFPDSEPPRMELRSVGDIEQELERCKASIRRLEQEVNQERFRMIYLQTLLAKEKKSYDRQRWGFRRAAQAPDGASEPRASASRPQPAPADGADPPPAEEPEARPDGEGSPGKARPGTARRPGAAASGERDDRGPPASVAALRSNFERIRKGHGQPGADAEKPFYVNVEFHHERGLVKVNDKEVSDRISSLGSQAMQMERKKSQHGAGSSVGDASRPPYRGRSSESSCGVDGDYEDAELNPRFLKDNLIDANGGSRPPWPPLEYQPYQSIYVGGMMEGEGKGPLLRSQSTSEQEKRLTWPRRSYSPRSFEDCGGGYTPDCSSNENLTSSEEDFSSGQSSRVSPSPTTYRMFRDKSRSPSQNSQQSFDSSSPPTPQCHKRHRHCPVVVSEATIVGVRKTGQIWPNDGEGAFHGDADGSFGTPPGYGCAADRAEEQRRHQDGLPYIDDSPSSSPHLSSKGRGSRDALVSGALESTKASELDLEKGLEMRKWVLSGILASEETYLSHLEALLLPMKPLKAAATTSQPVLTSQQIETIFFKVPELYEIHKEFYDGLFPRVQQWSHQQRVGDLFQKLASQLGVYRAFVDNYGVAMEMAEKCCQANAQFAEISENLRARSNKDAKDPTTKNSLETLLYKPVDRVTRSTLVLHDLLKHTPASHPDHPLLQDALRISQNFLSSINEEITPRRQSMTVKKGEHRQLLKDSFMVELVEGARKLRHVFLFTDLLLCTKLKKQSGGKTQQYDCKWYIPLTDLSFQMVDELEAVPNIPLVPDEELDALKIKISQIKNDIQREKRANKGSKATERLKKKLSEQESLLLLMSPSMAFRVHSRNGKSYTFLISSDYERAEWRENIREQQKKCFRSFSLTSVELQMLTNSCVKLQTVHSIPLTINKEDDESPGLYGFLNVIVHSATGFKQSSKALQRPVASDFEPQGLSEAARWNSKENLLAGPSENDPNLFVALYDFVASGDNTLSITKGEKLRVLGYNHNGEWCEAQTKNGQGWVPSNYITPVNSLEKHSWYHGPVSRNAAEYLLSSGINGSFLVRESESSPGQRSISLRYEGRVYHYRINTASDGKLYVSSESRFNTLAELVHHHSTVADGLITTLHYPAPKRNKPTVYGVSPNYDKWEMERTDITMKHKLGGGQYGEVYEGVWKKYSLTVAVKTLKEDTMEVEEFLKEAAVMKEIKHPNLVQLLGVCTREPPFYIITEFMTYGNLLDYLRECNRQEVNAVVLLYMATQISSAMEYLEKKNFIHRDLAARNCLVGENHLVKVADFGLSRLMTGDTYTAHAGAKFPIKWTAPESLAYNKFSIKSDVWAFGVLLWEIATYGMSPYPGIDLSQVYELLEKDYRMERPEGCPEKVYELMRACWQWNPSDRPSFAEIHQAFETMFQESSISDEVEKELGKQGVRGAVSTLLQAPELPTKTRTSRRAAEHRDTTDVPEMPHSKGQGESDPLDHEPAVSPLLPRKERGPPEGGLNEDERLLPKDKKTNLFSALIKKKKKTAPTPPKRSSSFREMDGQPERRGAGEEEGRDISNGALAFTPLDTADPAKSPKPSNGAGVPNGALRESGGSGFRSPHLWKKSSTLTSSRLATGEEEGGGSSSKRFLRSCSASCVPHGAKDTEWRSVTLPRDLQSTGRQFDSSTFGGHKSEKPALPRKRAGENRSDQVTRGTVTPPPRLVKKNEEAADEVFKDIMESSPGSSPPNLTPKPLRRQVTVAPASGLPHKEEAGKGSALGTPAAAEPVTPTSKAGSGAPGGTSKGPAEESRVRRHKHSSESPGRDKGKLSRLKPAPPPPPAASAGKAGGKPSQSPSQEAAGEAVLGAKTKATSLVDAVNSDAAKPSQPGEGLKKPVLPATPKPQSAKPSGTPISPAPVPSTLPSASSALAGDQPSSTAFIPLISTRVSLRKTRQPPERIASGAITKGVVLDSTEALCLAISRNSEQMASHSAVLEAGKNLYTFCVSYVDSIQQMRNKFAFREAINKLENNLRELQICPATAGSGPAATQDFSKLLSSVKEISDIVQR

For `COc1cc(Nc2c(C#N)cnc3cc(OCCCN4CCN(C)CC4)c(OC)cc23)c(Cl)cc1Cl` [Bosutinib, reference compound], which IC50 ([1]; Homo sapiens, K562, 48 h) is on record?
Its IC50 is 92.6 nM.

And the IC50 [2, 7]?
The IC50 was > 10000 nM.

And the IC50 [3, 8]?
The IC50 was > 10000 nM.

For `NC(=O)c1cccc2cn(-c3ccc([C@@H]4CCCNC4)cc3)nc12` [Niraparib, reference compound], which IC50 [4] is on record?
Its IC50 is 1 µM.

Which IC50 [4] does the source give for `O=C(c1cc(Cc2n[nH]c(=O)c3ccccc23)ccc1F)N1CCN(C(=O)C2CC2)CC1` [Olaparib, reference compound] here?
The IC50 was 2.31 µM.

How did the IC50 [4] turn out when `CNCc1ccc(-c2[nH]c3cc(F)cc4c3c2CCNC4=O)cc1` [Rucaparib, reference compound] was run?
The IC50 was 1.12 µM.

`Cc1nc(Nc2ncc(C(=O)Nc3c(C)cccc3Cl)s2)cc(N2CCN(C(=O)CS(=O)(=O)c3cccc4c3C(=O)N(C3CCC(=O)NC3=O)C4=O)CC2)n1` (centres unmarked) [SIAIS151108, N-(2-chloro-6-methylphenyl)-2-((6-(4-(2-((2-(2,6-dioxopiperidin-3-yl)-1,3-dioxoisoindolin-4-yl)sulfonyl)acetyl)piperazin-1-yl)-2-methylpyrimidin-4-yl)amino)thiazole-5-carboxamide] was tested. Which IC50 ([1]; Homo sapiens, K562, 48 h) did it give?
Its IC50 is 206 nM.

What about the IC50 [2, 7] of the same compound?
Its IC50 is > 10000 nM.

What about the IC50 [3, 8] of the same compound?
Its IC50 is > 10000 nM.

And the DC50 [5]?
Its DC50 is 245 nM.

With `Cc1nc(Nc2ncc(C(=O)Nc3c(C)cccc3Cl)s2)cc(N2CCN(C(=O)C[S+]([O-])c3cccc4c3C(=O)N(C3CCC(=O)NC3=O)C4=O)CC2)n1` (centres unmarked) [SIAIS151109, N-(2-chloro-6-methylphenyl)-2-((6-(4-(2-((2-(2,6-dioxopiperidin-3-yl)-1,3-dioxoisoindolin-4-yl)sulfinyl)acetyl)piperazin-1-yl)-2-methylpyrimidin-4-yl)amino)thiazole-5-carboxamide] as the compound, how does the IC50 ([1]; Homo sapiens, K562, 48 h) read?
Its IC50 is 148 nM.

And the IC50 [2, 7]?
The IC50 was > 10000 nM.

What about the IC50 [3, 8] of the same compound?
Its IC50 is > 10000 nM.

What about the DC50 [5] of the same compound?
Its DC50 is 483 nM.

With `Cc1nc(Nc2ncc(C(=O)Nc3c(C)cccc3Cl)s2)cc(N2CCN(C(=O)CSc3cccc4c3C(=O)N(C3CCC(=O)NC3=O)C4=O)CC2)n1` (centres unmarked) [SIAIS151110, N-(2-chloro-6-methylphenyl)-2-((6-(4-(2-((2-(2,6-dioxopiperidin-3-yl)-1,3-dioxoisoindolin-4-yl)thio)acetyl)piperazin-1-yl)-2-methylpyrimidin-4-yl)amino)thiazole-5-carboxamide] as the compound, how does the IC50 ([1]; Homo sapiens, K562, 48 h) read?
Its IC50 is 3.2 nM.

What about the IC50 [2, 7] of the same compound?
The IC50 was > 10000 nM.

What about the IC50 [3, 8] of the same compound?
Its IC50 is > 10000 nM.

And the DC50 [5]?
Its DC50 is < 1 nM.

Which results are given for `Cc1nc(Nc2ncc(C(=O)Nc3c(C)cccc3Cl)s2)cc(N2CCN(C(=O)CSc3cccc4c3CN(C3CCC(=O)NC3=O)C4=O)CC2)n1` (centres unmarked) [SIAIS171105, N-(2-chloro-6-methylphenyl)-2-((6-(4-(2-((2-(2,6-dioxopiperidin-3-yl)-1-oxoisoindolin-4-yl)thio)acetyl)piperazin-1-yl)-2-methylpyrimidin-4-yl)amino)thiazole-5-carboxamide]?
IC50 ([1]; Homo sapiens, K562, 48 h): 5.71 nM; IC50 [2, 7]: > 10000 nM; IC50 [3, 8]: > 10000 nM; DC50 [5]: 56.7 nM

Which IC50 ([1]; Homo sapiens, K562, 48 h) does the source give for `Cc1nc(Nc2ncc(C(=O)Nc3c(C)cccc3Cl)s2)cc(N2CCN(C(=O)CCSc3cccc4c3CN(C3CCC(=O)NC3=O)C4=O)CC2)n1` (centres unmarked) [SIAIS171106, N-(2-chloro-6-methylphenyl)-2-((6-(4-(3-((2-(2,6-dioxopiperidin-3-yl)-1-oxoisoindolin-4-yl)thio)propanoyl)piperazin-1-yl)-2-methylpyrimidin-4-yl)amino)thiazole-5-carboxamide] here?
Its IC50 is 1.74 nM.

What about the IC50 [2, 7] of the same compound?
The IC50 was > 10000 nM.

And the IC50 [3, 8]?
The IC50 was > 10000 nM.

And the DC50 [5]?
Its DC50 is 10.3 nM.

Which results are given for `Cc1nc(Nc2ncc(C(=O)Nc3c(C)cccc3Cl)s2)cc(N2CCN(C(=O)CCCSc3cccc4c3CN(C3CCC(=O)NC3=O)C4=O)CC2)n1` (centres unmarked) [SIAIS171107, N-(2-chloro-6-methylphenyl)-2-((6-(4-(4-((2-(2,6-dioxopiperidin-3-yl)-1-oxoisoindolin-4-yl)thio)butanoyl)piperazin-1-yl)-2-methylpyrimidin-4-yl)amino)thiazole-5-carboxamide]?
IC50 ([1]; Homo sapiens, K562, 48 h): 1.4 nM; IC50 [2, 7]: > 10000 nM; IC50 [3, 8]: > 10000 nM; DC50 [5]: 5.2 nM

How did the IC50 ([1]; Homo sapiens, K562, 48 h) turn out when `Cc1nc(Nc2ncc(C(=O)Nc3c(C)cccc3Cl)s2)cc(N2CCN(C(=O)CCCCSc3cccc4c3CN(C3CCC(=O)NC3=O)C4=O)CC2)n1` (centres unmarked) [SIAIS171108, N-(2-chloro-6-methylphenyl)-2-((6-(4-(5-((2-(2,6-dioxopiperidin-3-yl)-1-oxoisoindolin-4-yl)thio)pentanoyl)piperazin-1-yl)-2-methylpyrimidin-4-yl)amino)thiazole-5-carboxamide] was run?
The IC50 was 0.54 nM.

And the IC50 [2, 7]?
Its IC50 is > 10000 nM.

What about the IC50 [3, 8] of the same compound?
Its IC50 is > 10000 nM.

And the DC50 [5]?
Its DC50 is < 1 nM.

For `Cc1nc(Nc2ncc(C(=O)Nc3c(C)cccc3Cl)s2)cc(N2CCN(C(=O)CCCCCCSc3cccc4c3CN(C3CCC(=O)NC3=O)C4=O)CC2)n1` (centres unmarked) [SIAIS171110, N-(2-chloro-6-methylphenyl)-2-((6-(4-(7-((2-(2,6-dioxopiperidin-3-yl)-1-oxoisoindolin-4-yl)thio)heptanoyl)piperazin-1-yl)-2-methylpyrimidin-4-yl)amino)thiazole-5-carboxamide], which IC50 ([1]; Homo sapiens, K562, 48 h) is on record?
The IC50 was 1.33 nM.

And the IC50 [2, 7]?
The IC50 was > 10000 nM.

And the IC50 [3, 8]?
Its IC50 is > 10000 nM.

Which IC50 ([1]; Homo sapiens, K562, 48 h) does the source give for `Cc1nc(Nc2ncc(C(=O)Nc3c(C)cccc3Cl)s2)cc(N2CCN(CCSc3cccc4c3C(=O)N(C3CCC(=O)NC3=O)C4=O)CC2)n1` (centres unmarked) [SIAIS172056, N-(2-chloro-6-methylphenyl)-2-((6-(4-(2-((2-(2,6-dioxopiperidin-3-yl)-1,3-dioxoisoindolin-4-yl)thio)ethyl)piperazin-1-yl)-2-methylpyrimidin-4-yl)amino)thiazole-5-carboxamide] here?
The IC50 was 0.49 nM.

What about the IC50 [2, 7] of the same compound?
The IC50 was > 10000 nM.

What about the IC50 [3, 8] of the same compound?
The IC50 was > 10000 nM.

And the DC50 [5]?
The DC50 was < 1 nM.

`O=C1CCC(N2C(=O)c3cccc(SCC(=O)N4CCN(C(=O)c5cc(Cc6n[nH]c(=O)c7ccccc67)ccc5F)CC4)c3C2=O)C(=O)N1` (centres unmarked) [SIAIS180063, 2-(2,6-dioxopiperidin-3-yl)-4-((2-(4-(2-fluoro-5-((4-oxo-3,4-dihydrophthalazin-1-yl)methyl)benzoyl)piperazin-1-yl)-2-oxoethyl)thio)isoindoline-1,3-dione] was tested. Which IC50 [4] did it give?
The IC50 was 6.45 µM.

For `O=C1CCC(N2C(=O)c3cccc(SCCC(=O)N4CCN(C(=O)c5cc(Cc6n[nH]c(=O)c7ccccc67)ccc5F)CC4)c3C2=O)C(=O)N1` (centres unmarked) [SIAIS180064, 2-(2,6-dioxopiperidin-3-yl)-4-((3-(4-(2-fluoro-5-((4-oxo-3,4-dihydrophthalazin-1-yl)methyl)benzoyl)piperazin-1-yl)-3-oxopropyl)thio)isoindoline-1,3-dione], which IC50 [4] is on record?
The IC50 was 5.78 µM.

`O=C1CCC(N2C(=O)c3cccc(SCCCC(=O)N4CCN(C(=O)c5cc(Cc6n[nH]c(=O)c7ccccc67)ccc5F)CC4)c3C2=O)C(=O)N1` (centres unmarked) [SIAIS180065, 2-(2,6-dioxopiperidin-3-yl)-4-((4-(4-(2-fluoro-5-((4-oxo-3,4-dihydrophthalazin-1-yl)methyl)benzoyl)piperazin-1-yl)-4-oxobutyl)thio)isoindoline-1,3-dione] was tested. Which IC50 [4] did it give?
The IC50 was 3.82 µM.

With `O=C1CCC(N2Cc3c(SCCCCCCCCBr)cccc3C2=O)C(=O)N1` (centres unmarked) [SIAIS1216137, 3-(4-((8-bromooctyl)thio)-1-oxoisoindolin-2-yl)piperidine-2,6-dione] as the compound, how does the IC50 [6] read?
Its IC50 is 1.58 ± 0.71 nM.

With `O=C1CCC(N2Cc3c(SCCCCCCCCCCBr)cccc3C2=O)C(=O)N1` (centres unmarked) [SIAIS1220013, 3-(4-((10-bromodecyl)thio)-1-oxoisoindolin-2-yl)piperidine-2,6-dione] as the compound, how does the IC50 [6] read?
The IC50 was 1.98 nM.

Which IC50 [6] does the source give for `O=C1CCC(N2Cc3c(SCCCCCCCCCCCBr)cccc3C2=O)C(=O)N1` (centres unmarked) [SIAIS1220015, 3-(4-((11-bromoundecyl)thio)-1-oxoisoindolin-2-yl)piperidine-2,6-dione] here?
Its IC50 is 3.45 nM.

For `Cc1nc(Nc2ncc(C(=O)Nc3c(C)cccc3Cl)s2)cc(N2CCN(C(=O)CCCCCSc3cccc4c3CN(C3CCC(=O)NC3=O)C4=O)CC2)n1` (centres unmarked) [SIAIS 171109], which IC50 ([1]; K562 cells, 48 hours, CCK-8) is on record?
The IC50 was 0.53 nM.

And the IC50 ([2]; read-out: IC50 (nM)/U937 cell line, U937 cells, highest concentration 10 μM)?
Its IC50 is > 10000 nM.

What about the IC50 ([3]; read-out: IC50 (nM)/HEK293 cell line, HEK293 cells, highest concentration 10 μM) of the same compound?
The IC50 was > 10000 nM.
